Assays:
Test in all cases: relative viability (nuclei count vs DMSO), 5 days (fraction); higher = more cells survive
[1] = compound: O=C(O)CCCCC(CCSCc1ccccc1)SCc1ccccc1 [CPI-613]
In short: (§1)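 Lung cancer cell lines were seeded into 1536-well plates, kept overnight at 37 °C and pinned with five library-drug doses (not always all listed) spaced by √10. After 5 days, nuclei were Hoechst-stained, imaged at 4× and counted with MetaXpress. Viability is treated-well nuclei over vehicle-well nuclei, taken as a median across plates. Plates needed control CV below 25% and at least one doubling.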

[2] = compound: O=c1[nH]c2ccccc2n1C1CCN(CCCC(c2ccc(F)cc2)c2ccc(F)cc2)CC1 [Pimozide]
In short: as §1

[3] = compound: COc1cc2nccc(Oc3ccc(NC(=O)Nc4cc(C)on4)c(Cl)c3)c2cc1OC [Tivozanib]
In short: as §1

[4] = compound: Cc1cnc(-c2cnc(NCCNc3ccc(C#N)cn3)nc2-c2ccc(Cl)cc2Cl)[nH]1
In short: as §1

[5] = compound: Nc1ccn([C@@H]2O[C@H](CO)[C@@H](O)[C@@H]2O)c(=O)n1 [Cytarabine]
In short: as §1

[6] = compound: Cc1sc2c(c1C)C(c1ccc(Cl)cc1)=N[C@@H](CC(=O)OC(C)(C)C)c1nnc(C)n1-2 [JQ1]
In short: as §1

[7] = compound: CC(=O)O[C@@]12CO[C@@H]1C[C@H](O)[C@@]1(C)C(=O)[C@H](O)C3=C(C)[C@@H](OC(=O)[C@H](O)[C@@H](NC(=O)OC(C)(C)C)c4ccccc4)C[C@@](O)([C@@H](OC(=O)c4ccccc4)[C@H]21)C3(C)C [Docetaxel]
In short: as §1

Cell Line: LCLC-97TM1
- relative viability ([1]; 5 µM): 0.964
- relative viability ([1]; 15.81 µM): 0.993
- relative viability ([1]; 50 µM): 0.985
- relative viability ([1]; 158.11 µM): 0.97
- relative viability ([1]; 500 µM): 0.629
- relative viability ([2]; 0.08 µM): 0.984
- relative viability ([2]; 0.253 µM): 0.906
- relative viability ([2]; 0.8 µM): 0.916
- relative viability ([2]; 2.53 µM): 0.953
- relative viability ([2]; 8 µM): 0.653
- relative viability ([3]; 0.005 µM): 0.953
- relative viability ([3]; 0.01581 µM): 1.04
- relative viability ([3]; 0.05 µM): 1.05
- relative viability ([3]; 0.1581 µM): 0.927
- relative viability ([3]; 0.5 µM): 0.919
- relative viability ([4]; 0.08 µM): 0.977
- relative viability ([4]; 0.253 µM): 0.846
- relative viability ([4]; 0.8 µM): 0.907
- relative viability ([4]; 2.53 µM): 0.908
- relative viability ([5]; 0.005 µM): 0.99
- relative viability ([5]; 0.01581 µM): 0.787
- relative viability ([5]; 0.05 µM): 0.296
- relative viability ([5]; 0.1581 µM): 0.143
- relative viability ([5]; 0.5 µM): 0.129
- relative viability ([6]; 0.04 µM): 1
- relative viability ([6]; 0.1265 µM): 0.759
- relative viability ([6]; 0.4 µM): 0.803
- relative viability ([6]; 1.265 µM): 0.491
- relative viability ([6]; 4 µM): 0.194
- relative viability ([7]; 0.0002 µM): 0.88
- relative viability ([7]; 0.000632 µM): 0.617
- relative viability ([7]; 0.002 µM): 0.3
- relative viability ([7]; 0.006325 µM): 0.104
- relative viability ([7]; 0.02 µM): 0.0757

Cell Line: LCLC-103H
- relative viability ([1]; 5 µM): 0.999
- relative viability ([1]; 15.81 µM): 0.95
- relative viability ([1]; 50 µM): 0.99
- relative viability ([1]; 158.11 µM): 0.854
- relative viability ([1]; 500 µM): 0.773
- relative viability ([2]; 0.08 µM): 0.975
- relative viability ([2]; 0.253 µM): 0.905
- relative viability ([2]; 0.8 µM): 0.911
- relative viability ([2]; 2.53 µM): 0.969
- relative viability ([2]; 8 µM): 0.963
- relative viability ([3]; 0.005 µM): 0.996
- relative viability ([3]; 0.01581 µM): 0.995
- relative viability ([3]; 0.05 µM): 1.06
- relative viability ([3]; 0.1581 µM): 0.982
- relative viability ([3]; 0.5 µM): 0.994
- relative viability ([4]; 0.08 µM): 1.03
- relative viability ([4]; 0.253 µM): 0.865
- relative viability ([4]; 0.8 µM): 0.989
- relative viability ([4]; 2.53 µM): 0.952
- relative viability ([5]; 0.005 µM): 0.912
- relative viability ([5]; 0.01581 µM): 0.991
- relative viability ([5]; 0.05 µM): 1.01
- relative viability ([5]; 0.1581 µM): 0.965
- relative viability ([5]; 0.5 µM): 0.894
- relative viability ([6]; 0.04 µM): 0.979
- relative viability ([6]; 0.1265 µM): 0.83
- relative viability ([6]; 0.4 µM): 0.906
- relative viability ([6]; 1.265 µM): 0.658
- relative viability ([6]; 4 µM): 0.427
- relative viability ([7]; 0.0002 µM): 0.973
- relative viability ([7]; 0.000632 µM): 1.09
- relative viability ([7]; 0.002 µM): 0.903
- relative viability ([7]; 0.006325 µM): 0.502
- relative viability ([7]; 0.02 µM): 0.458

Cell Line: LK-2
- relative viability ([1]; 5 µM): 0.943
- relative viability ([1]; 15.81 µM): 0.953
- relative viability ([1]; 50 µM): 1.16
- relative viability ([1]; 158.11 µM): 1
- relative viability ([1]; 500 µM): 0.929
- relative viability ([2]; 0.08 µM): 0.965
- relative viability ([2]; 0.253 µM): 0.93
- relative viability ([2]; 0.8 µM): 0.843
- relative viability ([2]; 2.53 µM): 0.808
- relative viability ([2]; 8 µM): 1.06
- relative viability ([3]; 0.005 µM): 1.05
- relative viability ([3]; 0.01581 µM): 0.962
- relative viability ([3]; 0.05 µM): 0.937
- relative viability ([3]; 0.1581 µM): 0.834
- relative viability ([3]; 0.5 µM): 0.784
- relative viability ([4]; 0.08 µM): 1.14
- relative viability ([4]; 0.253 µM): 0.941
- relative viability ([4]; 0.8 µM): 0.995
- relative viability ([4]; 2.53 µM): 1.15
- relative viability ([5]; 0.005 µM): 0.797
- relative viability ([5]; 0.01581 µM): 0.604
- relative viability ([5]; 0.05 µM): 0.414
- relative viability ([5]; 0.1581 µM): 0.259
- relative viability ([5]; 0.5 µM): 0.212
- relative viability ([6]; 0.04 µM): 0.942
- relative viability ([6]; 0.1265 µM): 0.907
- relative viability ([6]; 0.4 µM): 0.497
- relative viability ([6]; 1.265 µM): 0.236
- relative viability ([6]; 4 µM): 0.218
- relative viability ([7]; 0.0002 µM): 0.921
- relative viability ([7]; 0.000632 µM): 0.771
- relative viability ([7]; 0.002 µM): 0.27
- relative viability ([7]; 0.006325 µM): 0.208
- relative viability ([7]; 0.02 µM): 0.144

Cell Line: LOU-NH91
- relative viability ([1]; 5 µM): 0.926
- relative viability ([1]; 15.81 µM): 0.951
- relative viability ([1]; 50 µM): 0.982
- relative viability ([1]; 158.11 µM): 0.913
- relative viability ([1]; 500 µM): 0.842
- relative viability ([2]; 0.08 µM): 0.785
- relative viability ([2]; 0.253 µM): 0.924
- relative viability ([2]; 0.8 µM): 0.916
- relative viability ([2]; 2.53 µM): 1.04
- relative viability ([2]; 8 µM): 0.896
- relative viability ([3]; 0.005 µM): 0.865
- relative viability ([3]; 0.01581 µM): 1.04
- relative viability ([3]; 0.05 µM): 0.982
- relative viability ([3]; 0.1581 µM): 0.814
- relative viability ([3]; 0.5 µM): 0.945
- relative viability ([4]; 0.08 µM): 1.01
- relative viability ([4]; 0.253 µM): 0.924
- relative viability ([4]; 0.8 µM): 0.94
- relative viability ([4]; 2.53 µM): 0.976
- relative viability ([5]; 0.005 µM): 0.955
- relative viability ([5]; 0.01581 µM): 0.918
- relative viability ([5]; 0.05 µM): 0.723
- relative viability ([5]; 0.1581 µM): 0.7
- relative viability ([5]; 0.5 µM): 0.584
- relative viability ([6]; 0.04 µM): 0.989
- relative viability ([6]; 0.1265 µM): 0.801
- relative viability ([6]; 0.4 µM): 0.637
- relative viability ([6]; 1.265 µM): 0.626
- relative viability ([6]; 4 µM): 0.462
- relative viability ([7]; 0.0002 µM): 0.898
- relative viability ([7]; 0.000632 µM): 0.758
- relative viability ([7]; 0.002 µM): 0.473
- relative viability ([7]; 0.006325 µM): 0.369
- relative viability ([7]; 0.02 µM): 0.354

Cell Line: LU99A
- relative viability ([1]; 5 µM): 0.896
- relative viability ([1]; 15.81 µM): 0.886
- relative viability ([1]; 50 µM): 0.832
- relative viability ([1]; 158.11 µM): 0.756
- relative viability ([1]; 500 µM): 0.279
- relative viability ([2]; 0.08 µM): 0.907
- relative viability ([2]; 0.253 µM): 0.938
- relative viability ([2]; 0.8 µM): 0.858
- relative viability ([2]; 2.53 µM): 0.893
- relative viability ([2]; 8 µM): 1
- relative viability ([3]; 0.005 µM): 0.987
- relative viability ([3]; 0.01581 µM): 0.849
- relative viability ([3]; 0.05 µM): 0.942
- relative viability ([3]; 0.1581 µM): 0.751
- relative viability ([3]; 0.5 µM): 0.952
- relative viability ([4]; 0.08 µM): 1.06
- relative viability ([4]; 0.253 µM): 0.939
- relative viability ([4]; 0.8 µM): 1.04
- relative viability ([4]; 2.53 µM): 0.963
- relative viability ([5]; 0.005 µM): 1.06
- relative viability ([5]; 0.01581 µM): 0.825
- relative viability ([5]; 0.05 µM): 0.905
- relative viability ([5]; 0.1581 µM): 0.886
- relative viability ([5]; 0.5 µM): 0.929
- relative viability ([6]; 0.04 µM): 0.847
- relative viability ([6]; 0.1265 µM): 0.667
- relative viability ([6]; 0.4 µM): 0.82
- relative viability ([6]; 1.265 µM): 0.542
- relative viability ([6]; 4 µM): 0.32
- relative viability ([7]; 0.0002 µM): 0.997
- relative viability ([7]; 0.000632 µM): 0.83
- relative viability ([7]; 0.002 µM): 0.478
- relative viability ([7]; 0.006325 µM): 0.395
- relative viability ([7]; 0.02 µM): 0.203

Source: the supplement of paper PMC10307832
